Laboratory results reported in the supplement of paper PMC10307832.

What was measured:
Experiment in all cases: relative viability (nuclei count vs DMSO), 5 days (fraction); higher = more cells survive
[1] = compound: CCn1c(-c2nonc2N)nc2cnc(Oc3cccc(NC(=O)c4ccc(OCCN5CCOCC5)cc4)c3)cc21 + Cc1cc(Nc2cc(N3CCN(C)CC3)nc(Sc3ccc(NC(=O)C4CC4)cc3)n2)n[nH]1 [Tozasertib] (partner 0.1 µM)
Summary of the method: (§1)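 Values are medians from duplicate plates. Each reflects relative viability, defined as the nuclei count of treated wells over that of vehicle wells. Lung cancer cell lines in 1536-well plates were pin-tool dosed one day after seeding with one drug alone or with a fixed anchor-drug dose plus five library-drug doses (not always all listed) in √10 steps, then fixed, stained and imaged at 4× after 5 days.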

Mirin + Palbociclib = compound: N=C1NC(=O)/C(=C/c2ccc(O)cc2)S1 [Mirin] + CC(=O)c1c(C)c2cnc(Nc3ccc(N4CCNCC4)cn3)nc2n(C2CCCC2)c1=O [Palbociclib] (partner 0.5 µM)
Summary of the method: as §1

Mirin + Alpelisib = compound: N=C1NC(=O)/C(=C/c2ccc(O)cc2)S1 [Mirin] + Cc1nc(NC(=O)N2CCC[C@H]2C(N)=O)sc1-c1ccnc(C(C)(C)C(F)(F)F)c1 [Alpelisib] (partner 2 µM)
Summary of the method: as §1

Mirin + Decitabine = compound: N=C1NC(=O)/C(=C/c2ccc(O)cc2)S1 [Mirin] + Nc1ncn([C@H]2C[C@H](O)[C@@H](CO)O2)c(=O)n1 [Decitabine] (partner 2 µM)
Summary of the method: as §1

Cell Line	relative viability ([1]; first compound 0.04 µM)	relative viability ([1]; first compound 0.1265 µM)	relative viability ([1]; first compound 0.4 µM)	relative viability ([1]; first compound 1.265 µM)	relative viability ([1]; first compound 4 µM)	relative viability (Mirin + Palbociclib; first compound 0.25 µM)	relative viability (Mirin + Palbociclib; first compound 2.5 µM)	relative viability (Mirin + Palbociclib; first compound 7.906 µM)	relative viability (Mirin + Palbociclib; first compound 25 µM)	relative viability (Mirin + Alpelisib; first compound 0.25 µM)	relative viability (Mirin + Alpelisib; first compound 2.5 µM)	relative viability (Mirin + Alpelisib; first compound 7.906 µM)	relative viability (Mirin + Alpelisib; first compound 25 µM)	relative viability (Mirin + Decitabine; first compound 0.25 µM)	relative viability (Mirin + Decitabine; first compound 2.5 µM)	relative viability (Mirin + Decitabine; first compound 7.906 µM)	relative viability (Mirin + Decitabine; first compound 25 µM)	relative viability (Mirin + Palbociclib; first compound 0.7906 µM)	relative viability (Mirin + Alpelisib; first compound 0.7906 µM)	relative viability (Mirin + Decitabine; first compound 0.7906 µM)
EPLC-272H	0.152	0.394	0.26	0.306	0.223	0.283	0.339	0.345	0.353	0.89	1.02	0.779	0.815	0.33	0.39	0.34	0.28			
NCI-H1437	0.432	0.382	0.383	0.315	0.314	0.358	0.292	0.318	0.327	0.979	0.832	0.705	0.474	0.571	0.606	0.647	0.555	0.32	0.884	0.559
EKVX	0.423	0.473	0.46	0.216	0.265	0.367	0.302	0.365	0.412	0.909	0.992	0.773	0.788	0.317	0.395	0.361	0.26	0.376	0.817	0.338
NCI-H1651	0.556	0.733	0.718	0.528	0.334	0.477	0.53	0.497	0.516	1.03	1.03	0.916	0.785	0.259	0.657	0.536	0.612	0.561	1.05	0.577
HCC-15	0.451	0.403	0.417	0.278	0.258	0.739	0.677	0.674	0.737	0.851	0.928	0.798	0.593	0.612	0.618	0.59	0.505	0.712	0.859	0.517
LCLC-103H	0.508	0.463	0.534	0.465	0.419	0.421	0.515	0.458	0.451	0.917	0.908	1.05	1.1	0.692	0.736	0.797	0.871	0.518	1.02	0.759
NCI-H2347	0.634	0.637	0.674	0.45	0.395	0.444	0.506	0.422	0.436	1.02	1.05	1.08	1.16	0.595	0.604	0.604	0.611	0.465	1.12	0.599
NCI-H647	0.338	0.267	0.29	0.146	0.0969	0.395	0.381	0.374	0.345	1.24	1.15	1.22	0.657	0.446	0.361	0.401	0.387	0.4	1.36	0.423
